Measurements: patent US4049809A, “Solution of a oxazepine for oral or parenteral administration” (priority 1976, dated 1977)
≈ marks a conversion by molar mass, not a printed value. Read-outs that look alike come from different tables or passages of the source.

Key:
[1] = type: physicochemical; conditions: 10 mg/ml, pH 6.0, 15 months
Excerpt: (§1) The favorable stability of the oral and parenteral solutions of this invention have been established in numerous tests. The criterion of stability being the lack of precipitation of the hydroylsis product 2-chloro-dibenz[b,f][1,4]oxazepin-11(1OH)-one. […]

[2] = Second stability study, parenteral solution 15 mg/ml; type: physicochemical; conditions: 70% propylene glycol, pH 6.0
Excerpt: as §1

[3] = Third stability study, parenteral solution 20 mg/ml; type: physicochemical; conditions: 20 mg/ml parenteral solution
Protocol: The favorable stability of the oral and parenteral solutions of this invention have been established in numerous tests. The criterion of stability being the lack of precipitation of the hydroylsis product 2-chloro-dibenz[b,f][1,4]oxazepin-11(1OH)-one. […] Three such studies follow:
In the third test a parenteral solution of the active ingredient at a concentration of 20 mg/ml was prepared as described in the second stability study.

[4] = Solubility and stability in water and near neutral/basic liquids; type: physicochemical
[5] = Crystallization/solubility behaviour with and without Polysorbate 80; type: physicochemical
[6] = Toxicity of hydrolysis product (statement)
[7] = Stability of solutions: lack of precipitation of the hydrolysis product; type: physicochemical; conditions: in the new solutions; below this concentration
Excerpt: as §1

## CN1CCN(C2=Nc3ccccc3Oc3ccc(Cl)cc32)CC1 [2-chloro-11-(4-methyl-1-piperazinyl)-dibenz[b,f][1,4]oxazepine]
[1]; 50% propylene glycol
  Hydrolysis Product: 120 µg/mL
[1]; 60% propylene glycol
  Hydrolysis Product: 110 µg/mL
[1]; 70% propylene glycol
  Hydrolysis Product: 100 µg/mL
[2]; 42° C, 1 Month
  Hydrolysis Product: 124 µg/mL
  Potency: 16.0 mg/mL (≈ 48.8 mM)
[2]; 42° C, 2 Months
  Hydrolysis Product: 192 µg/mL
  Potency: 14.5 mg/mL (≈ 44.2 mM)
[2]; 42° C, 4 Months
  Hydrolysis Product: 340 µg/mL
  Potency: 15.5 mg/mL (≈ 47.3 mM)
[2]; 56° C, 1 Month
  Hydrolysis Product: 320 µg/mL
  Potency: 16.0 mg/mL (≈ 48.8 mM)
[2]; 56° C, 2 Months
  Hydrolysis Product: 580 µg/mL
  Potency: 14.5 mg/mL (≈ 44.2 mM)
[2]; 56° C, 2 Weeks
  Hydrolysis Product: 163 µg/mL
  Potency: 15.3 mg/mL (≈ 46.7 mM)
[2]; 70° C, 1 Week
  Hydrolysis Product: 370 µg/mL
  Physical Appearance: Precipitate
  Potency: 15.0 mg/mL (≈ 45.8 mM)
[2]; 70° C, 2 Weeks
  Hydrolysis Product: 467 µg/mL
  Potency: 14.8 mg/mL (≈ 45.1 mM)
[2]; Fresh
  Hydrolysis Product: 26 µg/mL
  Physical Appearance: Clear
  Potency: 16.0 mg/mL (≈ 48.8 mM)
[2]; Room Temp., 2 Months
  Hydrolysis Product: 55 µg/mL
  Potency: 15.4 mg/mL (≈ 47 mM)
[2]; Room Temp., 4 Months
  Hydrolysis Product: 67 µg/mL
  Potency: 15.6 mg/mL (≈ 47.6 mM)
[2]; Room Temp., 6 Months
  Hydrolysis Product: 94 µg/mL
  Potency: 15.6 mg/mL (≈ 47.6 mM)
[2]; Room Temp., 11 Months
  Hydrolysis Product: 142 µg/mL
  Potency: 15.4 mg/mL (≈ 47 mM)
[2]; Room Temp., 13 Months
  Hydrolysis Product: 144 µg/mL
  Potency: 15.1 mg/mL (≈ 46.1 mM)
[2]; Room Temp., 18 Months
  Hydrolysis Product: 260 µg/mL
  Potency: 14.3 mg/mL (≈ 43.6 mM)
[3]; 42° C, 1 Month
  Hydrolysis Product: 146 µg/mL
  Potency: 21.8 mg/mL (≈ 66.5 mM)
[3]; 42° C, 2 Months
  Hydrolysis Product: 232 µg/mL
  Potency: 20.5 mg/mL (≈ 62.5 mM)
[3]; 42° C, 4 Months
  Hydrolysis Product: 436 µg/mL
  Potency: 20.2 mg/mL (≈ 61.6 mM)
[3]; 56° C, 1 Month
  Hydrolysis Product: 374 µg/mL
  Potency: 20.6 mg/mL (≈ 62.8 mM)
[3]; 56° C, 2 Months
  Hydrolysis Product: 732 µg/mL
  Potency: 19.4 mg/mL (≈ 59.2 mM)
[3]; 56° C, 2 Weeks
  Hydrolysis Product: 185 µg/mL
  Potency: 21.0 mg/mL (≈ 64.1 mM)
[3]; 70° C, 1 Week
  Hydrolysis Product: 480 µg/mL
  Physical Appearance: Precipitate
  Potency: 20.7 mg/mL (≈ 63.1 mM)
[3]; 70° C, 2 Weeks
  Hydrolysis Product: 623 µg/mL
  Potency: 20.6 mg/mL (≈ 62.8 mM)
[3]; Fresh
  Hydrolysis Product: 33.0 µg/mL
  Physical Appearance: Clear
  Potency: 21.6 mg/mL (≈ 65.9 mM)
[3]; Room Temp., 2 Months
  Hydrolysis Product: 62.7 µg/mL
  Potency: 21.1 mg/mL (≈ 64.4 mM)
[3]; Room Temp., 4 Months
  Hydrolysis Product: 78 µg/mL
  Potency: 22.3 mg/mL (≈ 68 mM)
[3]; Room Temp., 6 Months
  Hydrolysis Product: 116 µg/mL
  Potency: 20.8 mg/mL (≈ 63.5 mM)
[3]; Room Temp., 11 Months
  Hydrolysis Product: 160 µg/mL
  Potency: 20.7 mg/mL (≈ 63.1 mM)
[3]; Room Temp., 13 Months
  Hydrolysis Product: 184 µg/mL
  Potency: 20.6 mg/mL (≈ 62.8 mM)
[3]; Room Temp., 18 Months
  Hydrolysis Product: 340 µg/mL
  Potency: 20.5 mg/mL (≈ 62.5 mM)
[4]; basic or near neutral pH
  Solubility in liquids having a basic or near neutral pH: low solubility
[4]
  Solubility in water: low solubility
[5]; 70% aqueous propylene glycol with Polysorbate 80
  Effect of Polysorbate 80 on solubility level in 70% aqueous propylene glycol: raises the solubility level
[5]; 70% aqueous propylene glycol with Polysorbate 80 (about 2% to about 10%)
  Effect of Polysorbate 80 on crystallization during intramuscular administration: eliminates the crystallization
[5]; body fluids, pH about 7.0
  Crystallization when parenterally administered to body fluids: exhibits a tendency to crystallize
[5]; neutral or basic media
  Crystallization from neutral or basic media: crystallizes from neutral or basic media
[5]; oral concentrate without polysorbate 80
  Precipitation on dilution with non-acidic foods or beverages: precipitates on dilution

## O=C1Nc2ccccc2Oc2ccc(Cl)cc21 [2-chloro-dibenz[b,f][1,4]oxazepin-11(10H)-one]
[4]
  Solubility in water: extremely insoluable
[6]
  Toxicity: nontoxic
[7]
  Concentration at which crystallization of hydrolysis product does not occur: below 500 mcg/ml
